Source: patent publication US7723473B2, “Peptide antagonists of TGF-beta family members and therapeutic uses thereof” (St. Louis University, priority 1997, dated 2010)
Each block holds one substance with its values, some of them ahead of it.

Assays:
TGF-β receptors [1] = assay: Inhibition of specific binding of 125I-TGF-β3 to TGF-β receptors in mink lung epithelial cells; conditions: 0.1 nM 125I-TGF-β3, 2.5 hr at 0° C.; read-out: IC50 for inhibiting 125I-TGF-β3 binding to TGF-β receptors
Description: (§1) Specific binding of ^125I-labeled TGF-β1, TGF-β2, and TGF-β3 (^125I-TGF-β1, ^125I-TGF-β2, and ^125I-TGF-β3) to TGF-β receptors in mink lung epithelial cells. ^125I-TGF-β1, ^125I-TGF-β2, and ^125I-TGF-β3 were prepared by iodination of TGF-β1, TGF-β2, and TGF-β3 with Na^125I as described previously (Ref. 7). The specific radioactivities of ^125I-TGF-β1, ^125I-TGF-β2, and ^125I-TGF-β3 were 1-3×10^5 cpm/ng. Mink lung epithelial cells were grown on 24-well clustered dishes to near confluence in Dulbecco's modified Eagle medium (DMEM) containing 10% fetal calf serum. The epithelial cells were incubated with 0.1 nM ^125I-TGF-β1, ^125I-TGF-β2, or ^125I-TGF-β3 both with and without 100-fold excess of unlabeled TGF-β1, TGF-β2, or TGF-β3 in binding buffer (Ref. 7). After 2.5 hr at 0° C., the cells were washed two times with binding buffer, and the cell-associated radioactivity was determined. The specific binding of ^125I-labeled TGF-β isoforms to TGF-β receptors in the cells was calculated by subtracting non-specific binding (in the presence of 100-fold excess of the unlabeled TGF-β isoforms) from total binding. All experiments were carried out in triplicate cell cultures.

TGF-β receptors [2] = assay: Inhibition of specific binding of 125I-TGF-β1 to TGF-β receptors in mink lung epithelial cells; conditions: for IC50: 0.1 nM 125I-TGF-β1, 2.5 hr at 0° C., read-out: IC50 for inhibiting 125I-TGF-β1 binding to TGF-β receptors; for inhibition of 125I-TGF-β1 binding to TGF-β receptors (in words): various concentrations, FIG. 1D / control experiments; for TGF-β antagonist activity compared with the cysteine-containing peptides: C44S/C48S versions; for effect on 125I-TGF-β1 binding to TGF-β receptors: even at a concentration of 136 μM; for IC50 lower than that of peptide β1^25 (41-65) prior to conjugation: 125I-TGF-β1 binding
Description: as §1, with “The specific binding of ^125I-labeled TGF-β isoforms to TGF-β receptors in the cells was calculated by subtracting non-specific binding (in the presence of 100-fold excess of the unlabeled TGF-β isoforms) from total binding.” left out

[3] = tested on: type V TGF-β receptor (TβR-V); assay: 125I-TGF-β1-affinity labeling of cell-surface type V TGF-β receptor in mink lung epithelial cells; format: binding; conditions: various concentrations, FIG. 2 lanes 2-5
Description: ^125I-TGF-β1-affinity labeling of cell-surface TGF-β receptors in mink lung epithelial cells. Mink lung epithelial cells grown on 60-mm Petri dishes were incubated with 0.1 nM […] the presence of various concentrations of peptide β1^25 (41-65) or peptide β3^25 (41-65) in binding buffer. After 2.5 hr at 0° C., ^125I-TGF-β1-affinity labeling was carried out in the presence of DSS as described. The ^125I-TGF-β1-affinity-labeled TGF-β receptors were analyzed by 5% SDS-polyacrylamide gel electrophoresis under reducing conditions and autoradiography.

TGF-β receptors [4] = assay: Inhibition of specific binding of 125I-TGF-β2 to TGF-β receptors in mink lung epithelial cells; conditions: 0.1 nM 125I-TGF-β2, 2.5 hr at 0° C.; read-out: IC50 for inhibiting 125I-TGF-β2 binding to TGF-β receptors
Description: as §1

[5] = Stability in solution or gel during storage; format: physicochemical; conditions: compared with cysteine-containing peptides
Source text: Preparation of peptides. The amino acid sequences of all peptides were derived from those of TGF-β1, TGF-β2, and TGF-β3. For peptides β1^25 (41-65), β2^25 (41-65), and β3^25 (41-65), other versions in which cysteine-44 and cysteine-48 were replaced by serine residues were also synthesized. […] The C44S/C48S version of peptide β1^25 (41-65) is designated SEQ ID NO:12, the C44S/C48S version of the peptide β2^25 (41-65) is designated SEQ ID NO: 13, and the C44S/C48S version of peptide of β3^25 (41-65) is designated SEQ ID NO:14. […] The peptides were synthesized using tert-butoxycarbonyl chemistry on an Applied Biosystems Model 431A peptide synthesizer and purified using Sephadex G-25 column chromatography and reverse-phase HPLC (C-8 column). The purity of the synthesized peptides were verified by automated Edman degradation on an Applied Biosystems Model 477A gas/liquid phase protein sequenator with an on-line Applied Biosystems Model 120A phenylthiohydantoin amino acid analyzer. The purity of all peptides was estimated to be ≧95%.
Preparation of IntraSite® gel containing TGF-β peptantagonist (peptide TGF-beta antagonist). 1 ml of sterile 6 mM peptide β1^25 (41-65) in phosphate buffered saline or 1 ml of sterile phosphate buffered saline was vigorously mixed with 3 ml of IntraSite® gel using two 10 ml syringes connected with a three-way connector. […] However, 1.5 mM of peptide β1^25 (41-65) was used throughout the experiments described below.

type V TGF-β receptor = type V TGF-β receptor (Homo sapiens, UniProt Q07954); conditions: Ref. 6; read-out: Kd for binding to the type V TGF-β receptor; cited from earlier work
type V TGF-β receptor, sequence (Q07954 20-4544): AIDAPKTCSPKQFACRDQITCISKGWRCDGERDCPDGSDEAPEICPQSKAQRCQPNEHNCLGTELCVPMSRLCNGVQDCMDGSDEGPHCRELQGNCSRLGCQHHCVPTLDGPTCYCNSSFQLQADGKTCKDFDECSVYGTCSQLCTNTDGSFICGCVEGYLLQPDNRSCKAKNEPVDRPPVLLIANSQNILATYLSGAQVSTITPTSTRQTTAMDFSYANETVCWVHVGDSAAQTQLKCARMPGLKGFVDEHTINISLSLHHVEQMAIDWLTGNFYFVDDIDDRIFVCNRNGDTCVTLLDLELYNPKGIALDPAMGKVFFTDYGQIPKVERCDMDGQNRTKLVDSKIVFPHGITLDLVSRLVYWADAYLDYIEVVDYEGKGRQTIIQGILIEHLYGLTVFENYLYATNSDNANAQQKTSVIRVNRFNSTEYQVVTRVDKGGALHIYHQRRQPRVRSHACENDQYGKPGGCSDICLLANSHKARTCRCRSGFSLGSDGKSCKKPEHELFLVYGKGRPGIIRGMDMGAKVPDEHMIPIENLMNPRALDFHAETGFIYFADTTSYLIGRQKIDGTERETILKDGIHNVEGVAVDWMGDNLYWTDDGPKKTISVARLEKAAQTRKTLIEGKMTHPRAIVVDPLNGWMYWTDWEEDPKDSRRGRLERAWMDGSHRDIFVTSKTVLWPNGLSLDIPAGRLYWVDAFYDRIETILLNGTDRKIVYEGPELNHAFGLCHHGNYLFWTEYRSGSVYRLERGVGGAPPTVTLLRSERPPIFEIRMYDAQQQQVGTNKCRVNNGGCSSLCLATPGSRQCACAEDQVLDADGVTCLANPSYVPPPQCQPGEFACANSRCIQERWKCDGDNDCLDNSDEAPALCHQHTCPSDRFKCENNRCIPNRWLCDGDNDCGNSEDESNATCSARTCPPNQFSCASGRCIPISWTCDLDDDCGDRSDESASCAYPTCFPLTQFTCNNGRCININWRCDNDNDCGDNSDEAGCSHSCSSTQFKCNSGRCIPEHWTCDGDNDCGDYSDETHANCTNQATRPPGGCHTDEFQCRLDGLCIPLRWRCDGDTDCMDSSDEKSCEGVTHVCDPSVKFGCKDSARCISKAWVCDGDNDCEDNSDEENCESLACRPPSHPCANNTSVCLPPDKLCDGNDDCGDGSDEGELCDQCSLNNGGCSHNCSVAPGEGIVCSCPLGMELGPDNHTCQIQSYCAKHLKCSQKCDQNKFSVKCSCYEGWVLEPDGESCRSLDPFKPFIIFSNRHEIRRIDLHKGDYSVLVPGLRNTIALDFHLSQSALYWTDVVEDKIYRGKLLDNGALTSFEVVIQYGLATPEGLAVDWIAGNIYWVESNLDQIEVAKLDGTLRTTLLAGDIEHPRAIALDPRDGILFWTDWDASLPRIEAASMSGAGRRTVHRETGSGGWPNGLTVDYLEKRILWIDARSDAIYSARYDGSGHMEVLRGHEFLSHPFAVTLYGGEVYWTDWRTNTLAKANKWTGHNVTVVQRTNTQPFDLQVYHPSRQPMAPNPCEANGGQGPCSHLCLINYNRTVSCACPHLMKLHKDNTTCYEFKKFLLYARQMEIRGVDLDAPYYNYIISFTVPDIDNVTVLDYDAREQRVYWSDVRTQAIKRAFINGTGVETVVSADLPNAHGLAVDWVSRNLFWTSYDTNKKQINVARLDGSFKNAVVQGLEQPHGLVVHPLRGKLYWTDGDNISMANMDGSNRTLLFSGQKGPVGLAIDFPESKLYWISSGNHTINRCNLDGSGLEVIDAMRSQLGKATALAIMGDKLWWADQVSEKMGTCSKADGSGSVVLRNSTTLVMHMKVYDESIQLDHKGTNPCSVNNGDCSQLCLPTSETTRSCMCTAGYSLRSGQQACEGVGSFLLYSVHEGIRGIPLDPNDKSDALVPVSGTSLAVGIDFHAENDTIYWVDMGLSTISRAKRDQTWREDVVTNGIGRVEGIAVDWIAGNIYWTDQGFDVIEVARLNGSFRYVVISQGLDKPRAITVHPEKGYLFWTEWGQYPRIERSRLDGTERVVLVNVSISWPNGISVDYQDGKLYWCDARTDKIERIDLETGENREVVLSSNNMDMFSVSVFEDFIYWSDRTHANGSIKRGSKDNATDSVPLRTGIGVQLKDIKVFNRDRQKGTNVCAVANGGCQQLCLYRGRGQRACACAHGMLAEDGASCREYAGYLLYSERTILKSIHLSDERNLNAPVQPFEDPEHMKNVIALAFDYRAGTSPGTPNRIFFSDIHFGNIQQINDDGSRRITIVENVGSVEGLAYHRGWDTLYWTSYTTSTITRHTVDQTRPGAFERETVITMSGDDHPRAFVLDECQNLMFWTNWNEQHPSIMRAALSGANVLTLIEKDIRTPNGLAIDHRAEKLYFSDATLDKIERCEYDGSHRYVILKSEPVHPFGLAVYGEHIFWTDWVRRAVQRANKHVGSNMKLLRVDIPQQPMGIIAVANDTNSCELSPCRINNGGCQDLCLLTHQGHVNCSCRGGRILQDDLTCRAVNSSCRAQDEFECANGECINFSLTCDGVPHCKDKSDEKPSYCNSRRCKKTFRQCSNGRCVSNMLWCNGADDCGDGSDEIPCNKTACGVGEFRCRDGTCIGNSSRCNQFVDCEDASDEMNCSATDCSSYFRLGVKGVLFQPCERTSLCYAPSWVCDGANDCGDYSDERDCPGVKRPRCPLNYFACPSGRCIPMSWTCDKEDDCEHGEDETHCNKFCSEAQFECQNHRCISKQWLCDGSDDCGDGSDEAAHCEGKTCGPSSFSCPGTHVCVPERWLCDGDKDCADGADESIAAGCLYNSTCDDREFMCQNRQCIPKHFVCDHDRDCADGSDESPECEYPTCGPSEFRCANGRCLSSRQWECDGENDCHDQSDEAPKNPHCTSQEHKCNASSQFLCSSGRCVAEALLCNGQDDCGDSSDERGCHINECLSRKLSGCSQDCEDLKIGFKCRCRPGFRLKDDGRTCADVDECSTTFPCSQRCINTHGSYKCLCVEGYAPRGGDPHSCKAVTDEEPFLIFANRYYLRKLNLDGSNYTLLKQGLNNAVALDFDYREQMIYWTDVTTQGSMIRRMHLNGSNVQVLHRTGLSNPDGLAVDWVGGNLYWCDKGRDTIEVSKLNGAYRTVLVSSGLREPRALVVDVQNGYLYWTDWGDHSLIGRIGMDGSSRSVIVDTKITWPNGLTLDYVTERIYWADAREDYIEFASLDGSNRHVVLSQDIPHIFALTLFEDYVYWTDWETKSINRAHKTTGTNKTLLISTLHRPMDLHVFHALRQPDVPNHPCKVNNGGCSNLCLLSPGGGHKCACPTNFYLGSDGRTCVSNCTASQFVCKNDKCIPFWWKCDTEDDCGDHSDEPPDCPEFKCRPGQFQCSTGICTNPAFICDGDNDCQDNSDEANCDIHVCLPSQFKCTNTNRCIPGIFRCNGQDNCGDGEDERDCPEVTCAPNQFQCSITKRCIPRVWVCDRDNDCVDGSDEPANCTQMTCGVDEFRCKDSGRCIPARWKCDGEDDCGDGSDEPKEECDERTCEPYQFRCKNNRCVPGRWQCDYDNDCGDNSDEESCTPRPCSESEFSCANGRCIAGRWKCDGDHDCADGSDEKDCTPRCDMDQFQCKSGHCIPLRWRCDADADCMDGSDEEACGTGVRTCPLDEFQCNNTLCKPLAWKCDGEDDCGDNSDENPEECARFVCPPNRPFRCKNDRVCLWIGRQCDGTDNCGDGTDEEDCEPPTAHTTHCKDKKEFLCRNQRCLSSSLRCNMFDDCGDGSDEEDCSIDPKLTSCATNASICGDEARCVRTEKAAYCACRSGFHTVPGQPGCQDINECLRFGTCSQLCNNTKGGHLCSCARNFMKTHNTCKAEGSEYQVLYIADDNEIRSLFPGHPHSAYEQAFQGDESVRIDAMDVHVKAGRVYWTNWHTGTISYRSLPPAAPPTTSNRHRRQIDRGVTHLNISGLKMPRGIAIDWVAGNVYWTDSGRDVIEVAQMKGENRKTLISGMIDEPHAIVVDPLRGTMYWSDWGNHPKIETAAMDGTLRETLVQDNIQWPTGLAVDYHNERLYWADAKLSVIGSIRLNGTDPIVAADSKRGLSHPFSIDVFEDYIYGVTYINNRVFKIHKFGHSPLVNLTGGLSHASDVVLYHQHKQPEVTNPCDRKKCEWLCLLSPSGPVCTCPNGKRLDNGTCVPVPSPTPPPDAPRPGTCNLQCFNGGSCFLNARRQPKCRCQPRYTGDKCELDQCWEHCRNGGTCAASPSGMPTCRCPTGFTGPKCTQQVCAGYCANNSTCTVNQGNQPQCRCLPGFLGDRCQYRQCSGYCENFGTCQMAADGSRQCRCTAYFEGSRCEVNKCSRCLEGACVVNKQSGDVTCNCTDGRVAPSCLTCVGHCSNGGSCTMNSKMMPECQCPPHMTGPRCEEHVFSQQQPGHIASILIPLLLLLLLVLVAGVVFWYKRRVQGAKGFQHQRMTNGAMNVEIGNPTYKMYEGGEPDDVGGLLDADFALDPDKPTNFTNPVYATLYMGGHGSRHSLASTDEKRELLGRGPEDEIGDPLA

[6] = tested on: mink lung epithelial cells; assay: Mink lung epithelial cell growth measured by DNA synthesis without added TGF-β1 (agonist activity); format: cell-based; conditions: for EC50: no added TGF-β1, read-out: ED50 of growth inhibition as measured by DNA synthesis
Description: [Methyl-^3H]thymidine Incorporation—Mink lung epithelial cells grown on 24-well clustered dishes were incubated with various concentrations of TGF-β1 in the presence and absence of peptide β1^25 (41-65) or with various concentrations of peptide β1^25 (41-65)-CA, and peptide β1^25 (41-65)-BSA in DMEM containing 0.1% fetal calf serum. After 16 hr at 37° C., the cells were pulsed with 1 μCi/ml of [methyl-^3H]thymidine for 4 hr. The cells were then washed twice with 1 ml of 10% trichloroacetic acid and once with 0.5 ml of ethanol:ether (2:1, v/v). The cells were then dissolved in 0.4 ml of 0.2 N NaOH and counted with a liquid scintillation counter.

PAI-1 expression = PAI-1 expression in mink lung epithelial cells (Northern blot); format: cell-based; conditions: conjugates alone, data not shown
Description: RNA Analysis—Mink lung epithelial cells were grown overnight in 12-well clustered dishes in DMEM containing 10% fetal calf serum. The medium was then changed to DMEM containing 0.1% fetal calf serum and the cells were incubated with 0.25 and 2.5 ρM TGF-β1 in the presence of various concentrations of peptide β1^25 (41-65) for 2.5 hr. Total cellular RNA was extracted using RNAzol B (Tel-Test Inc.) according to the manufacturer's protocol. RNA was electrophoresed in 1.2% agarose-formaldehyde gel and transferred to Duralon-UV membranes using 10×SSC. The membranes were probed at 42° C. with a random-primed, radiolabeled 1-kb fragment from the Hind III and NeoI digests of PAI-1 cDNA and glyceraldehyde-3-phosphate dehydrogenase (“GAPDH”) cDNA. The blots were washed with 0.1×SSC containing 0.1% SDS at room temperature.

IC50 (TGF-β receptors [1]): ~80 nM
Substance: ANFCAGACPYLWSSDTQHSRVLSLY [peptide β2^25 (41-65)]

IC50 (TGF-β receptors [2]): ~20000 nM
IC50 (TGF-β receptors [4]): ~20000 nM
Substance: ANFCSGPCPYLRSADTTHSTVLGLY [peptide β3^25 (41-65)]
blocking the 125I-TGF-β1-affinity labeling of the type V TGF-β receptor [3]: weak activity

Substance: CA: carrier protein human carbonic anhydrase I conjugated without peptides, control [reference compound]
inhibition of 125I-TGF-β1 binding to TGF-β receptors (in words) (TGF-β receptors [2]): did not have inhibitory activity

Substance: SEQ ID NO:12: β1^25 (41-65) with cysteine-44 and cysteine-48 replaced by serine residues (ANFSLGPSPYIWSLDTQYSKVLALY; listed as Homo sapiens)
stability in solution during storage [5]: better stability
TGF-β antagonist activity compared with the cysteine-containing peptides (TGF-β receptors [2]): same TGF-β antagonist activity

Substance: SEQ ID NO:14: β3^25 (41-65) with cysteine-44 and cysteine-48 replaced by serine residues (ANFSSGPSPYLRSADTTHSTVLGLY; listed as Homo sapiens)
stability in solution during storage [5]: better stability
TGF-β antagonist activity compared with the cysteine-containing peptides (TGF-β receptors [2]): same TGF-β antagonist activity

Substance: SEQ ID NO: 13: β2^25 (41-65) with cysteine-44 and cysteine-48 replaced by serine residues (ANFSAGASPYLWSSDTQHSRVLSLY; Human)
stability in solution during storage [5]: better stability
TGF-β antagonist activity compared with the cysteine-containing peptides (TGF-β receptors [2]): same TGF-β antagonist activity

Substance: TGF-β1: transforming growth factor β1, 25-kDa dimeric protein
Kd (type V TGF-β receptor): ~0.4 nM

Substance: TGF-β2: transforming growth factor β2
Kd (type V TGF-β receptor): ~0.4 nM

Substance: TGF-β3: transforming growth factor β3
Kd (type V TGF-β receptor): ~5 nM

Substance: peptide β1^25 (21-45): pentacosapeptide, residues 21-45 of human TGF-β1 (YIDFRKDLGWKWIHEPKGYHANFCL)
effect on 125I-TGF-β1 binding to TGF-β receptors (TGF-β receptors [2]): did not show any effect

Substance: peptide β1^25 (31-55): pentacosapeptide, residues 31-55 of human TGF-β1 (KWIHEPKGYHANFCLGPCPYIWSLD)
effect on 125I-TGF-β1 binding to TGF-β receptors (TGF-β receptors [2]): did not show any effect

Substance: peptide β1^25 (51-75): pentacosapeptide, residues 51-75 of human TGF-β1 (IWSLDTQYSKVLALYNQHNPGASAA)
effect on 125I-TGF-β1 binding to TGF-β receptors (TGF-β receptors [2]): did not show any effect

Substance: peptide β1^25 (61-85): pentacosapeptide, residues 61-85 of human TGF-β1 (VLALYNQHNPGASAAPCCVPQALEP)
effect on 125I-TGF-β1 binding to TGF-β receptors (TGF-β receptors [2]): did not show any effect

Substance: peptide β1^25 (71-95): pentacosapeptide, residues 71-95 of human TGF-β1 (GASAAPCCVPQALEPLPIVYYVGRK)
effect on 125I-TGF-β1 binding to TGF-β receptors (TGF-β receptors [2]): did not show any effect

Substance: peptide β1^25 (81-105): pentacosapeptide, residues 81-105 of human TGF-β1 (QALEPLPIVYYVGRKPKVEQLSNMI)
effect on 125I-TGF-β1 binding to TGF-β receptors (TGF-β receptors [2]): did not show any effect

Substance: β1^10 (49-58) D55A (PYIWSLATQY)
inhibition of 125I-TGF-β1 binding to TGF-β receptors (in words) (TGF-β receptors [2]): similar

Substance: β1^10 (49-58) S53A (PYIWALDTQY)
inhibition of 125I-TGF-β1 binding to TGF-β receptors (in words) (TGF-β receptors [2]): similar

Substance: β1^10 (49-58) W52A (PYIASLDTQY)
inhibition of 125I-TGF-β1 binding to TGF-β receptors (in words) (TGF-β receptors [2]): similar

Substance: β1^25 (41-65) W52A/D55A (ANFCLGPCPYIASLATQYSKVLALY)
inhibition of 125I-TGF-β1 binding to TGF-β receptors (in words) (TGF-β receptors [2]): did not inhibit

IC50 lower than that of peptide β1^25 (41-65) prior to conjugation (TGF-β receptors [2]): ~20 fold
Substance: β1^25 (41-65)-BSA: peptide β1^25 (41-65) cross-linked with DSS to bovine serum albumin, ~5-10 peptides per carrier protein
EC50 [6]: ~100 nM
effects on the expression of PAI-1 (PAI-1 expression): neither showed significant effects

IC50 (TGF-β receptors [2]): ~50 nM
IC50 lower than that of peptide β1^25 (41-65) prior to conjugation (TGF-β receptors [2]): ~20 fold
Substance: β1^25 (41-65)-CA: peptide β1^25 (41-65) cross-linked with DSS to human carbonic anhydrase I, ~5-10 peptides per carrier protein
growth inhibition induced by conjugate ([6]; 0.2 μM conjugate): 30-40%
EC50 [6]: ~100 nM
effects on the expression of PAI-1 (PAI-1 expression): neither showed significant effects

Substance: β2^10 (49-58) D55A (PYLWSSATQH)
inhibition of 125I-TGF-β1 binding to TGF-β receptors (in words) (TGF-β receptors [2]): failed to inhibit

IC50 (TGF-β receptors [2]): ~40000 nM
Substance: β2^10 (49-58) S53A (PYLWASDTQH)

Substance: β2^10 (49-58) W52A (PYLASSDTQH)
inhibition of 125I-TGF-β1 binding to TGF-β receptors (in words) (TGF-β receptors [2]): failed to inhibit

Substance: β3^10 (49-58): decapeptide, residues 49-58 of TGF-β3 (SEQ ID NO:9) (PYLRSADTTH; listed as Homo sapiens)
inhibitory activity on 125I-TGF-β1 binding (TGF-β receptors [2]; concentrations up to ~300 μM): did not show any inhibitory activity

Substance: β3^25 (41-65) R52A/D55A (ANFCSGPCPYLASAATTHSTVLGLY)
inhibition of 125I-TGF-β1 binding to TGF-β receptors (in words) (TGF-β receptors [2]): did not inhibit
